# Measurements reported in patent US20090232909A1, “Method for determining physiological effects of hemoglobin” (priority 1999, published 2009).
# Molecular target: Hb (Homo sapiens, UniProt P68871+P69905)
# Experiment: EPR of iron nitrosyl-Hb formed by limiting NO with variously oxygenated Hb
# Type: biochemical
# Parameters: purchased Apex Bioscience (Research Triangle Park, N.C.)
# Source text: To investigate the reaction of NO with oxyHb, we begin by adopting the conventional viewpoint that: NO consumption involves a competition between the oxidation reaction (Eq. 1) and the adduct-forming addition reaction (Eq. 2); and that the specific rate constants for these reactions, namely kox and kadd, are independent of the degree of oxygen saturation (Y) of the hemes.
# [Fe(II)NO]/[NO]0=1−Y/[1−Y+κY] [4]
# HbA0 was obtained from Apex Bioscience (Research Triangle Park, N.C.). Buffer exchange was achieved by dialysis. Deoxygenation was performed by gas exchange with argon in a tonometer. NO was added from a stock solution prepared under ultrapure helium and purified across alkali and cold traps. Stock solutions of NO were prepared in phosphate buffered saline containing 100 μM DTPA, pH 7.4. NO injections were made via a gas tight Hamilton syringe with Teflon seal. The concentration of NO in stock solutions was assayed by electrode and by a Sievers 280 NO analyzer (Boulder Colo.).
# EPR spectroscopy was carried out with samples in 4-mm i.d. fused silica tubes, at 76° K, on a Varian E-9 spectrometer. UV-visible spectra were taken after NO addition. The sample was then placed in a deoxygenated EPR tube and plunged into liquid N2. EPR spectra of nitrosylHb or dinitrosyl iron complexes (DNICs) were recorded in a single 4-min. scan over 400 G on a Varian E-9 spectrometer operating at 9.274 GHz, with 10-mW microwave power, 10-20 G amplitude of field modulation at 100 kHz, and time constant of 0.250 sec. Spectra of high-spin metHb were recorded with a scan of 1000 G, 20 G modulation amplitude, time constant of 0.128 sec, under otherwise identical conditions. NitrosylHb was measured by double integration of EPR spectra and by comparison to EPR spectra of Hb(NO)4 standardized with UV-visible spectroscopy. The reproducibility of nitrosylHb measurements was estimated to be ±6% by repeated trials.
# (A) EPR spectra of iron-nitrosyl Hb derivatives formed by incubation of 19 μM NO with 393 μM Hb at various degrees of oxygen saturation in 10 mM phosphate buffer, pH 7.4. […]
smiles,measurement,setting,value
"[N]=O [NO, nitric oxide]",decrease of K over the 0 to 80% range of oxygen saturation,10 mM phosphate,7 fold
same,decrease of K by extrapolation,"10 mM phosphate, at 90% saturation",100 fold
same,K (κ = kox/kadd) from fit of Eq. 4,"100 mM phosphate, pH 7.4, average of the two curves",1.40±0.06
